Experimental data taken from patent US20250360185A1, “COMPOSITIONS COMPRISING PEDF-DERIVED SHORT PEPTIDES FOR THE TREATMENT OF DRY EYE DISEASES” (BRIM Biotechnology, Inc., priority 2022, published 2025).
“Also recorded” adds a separate entry of the source.

Legend:
Format in all cases: in vivo, human
subjects with DED [1] = test: Visual analog scale (VAS) ocular symptom ratings, clinical study with CAE model; settings: pre-CAE and post-CAE evaluations
Procedure: (§1) A multi-center, randomized, double masked, placebo controlled clinical study was conducted to assess the safety and efficacy of BRM421 ophthalmic solution (OS) in subjects with DED using a controlled adverse environment (CAE®) model (Ora, Inc., Andover, MA, USA). CAE® uses controlled ocular surface stress to exacerbate the signs and symptoms of DED in a safe and controllable manner.
(§2) During the first visit (Day-7±1), the subjects were screened, evaluated before CAE®, exposed to CAE®, evaluated after CAE®, and started with the placebo run-in period (7±1 days). During the 7-day study run-in period (for the purpose of subject selection) prior to randomization, all subjects received Placebo OS bilaterally, three times daily (TID). During the second visit, subjects were evaluated before CAE®, exposed to CAE®, and evaluated after CAE®. These evaluations formed the baseline measurements. The subjects were then randomized into two groups to receive either BRM421 ophthalmic solution (OS) or Placebo OS (Vehicle) bilaterally three times daily (TID) for 14 days from Visit 2 to Visit 4.
During these visits, subjects were evaluated for symptom efficacy. Specifically, visual analog scale (VAS) was measured by asking subjects to rate each ocular symptom due to ocular dryness. Symptoms assessed include burning/stinging, itching, foreign body sensation, blurred vision, eye dryness, photophobia, and pain.

subjects with DED [2] = test: Ora Ocular Discomfort & 4-Symptom Questionnaire (ODS) diary, clinical study with CAE model; settings: for Diary Dryness Change from Baseline, ANCOVA LS Mean (SE) / Diary Dryness Change from Baseline, Mean (SD) / Diary Burning Change from Baseline, ANCOVA LS Mean (SE) / Diary Ocular Discomfort Change from Baseline, ANCOVA LS Mean (SE) / Diary Burning Change from Baseline, Mean (SD) / Diary Ocular Discomfort Change from Baseline, Mean (SD): ITT observed data; for Diary Dryness Change from Baseline, Mean (SD) / Diary Burning Change from Baseline, Mean (SD) / Diary Ocular Discomfort Change from Baseline, Mean (SD): score 0 = None to 5 = Worst
Procedure: as §1, §2
Subjects were also asked to grade the severity of their dry eye disease symptoms in their diary in the morning and in the evening before instilling the study drug. The Ora Ocular Discomfort & 4-Symptom Questionnaire (ODS Questionnaire) was used, which included rating the severity of 5 symptoms: ocular discomfort, burning, dryness, grittiness, and stinging. Each symptom rating ranged from 0 to 5, where 0=None and 5=Worst.

subjects with DED [3] = test: Corneal damage repair assessed with fluorescein staining, clinical study
Procedure: as §1, §2
Severe dry eye cases can lead to cornea damages, which can be assessed with fluorescein staining. PDSP of the invention can treat DED. In addition, these PDSP can also repair corneal damages. […] The selective efficacies of BRM421 treatment in cataract patients are unexpected.

[4] = Day 1 to Day 7, morning, pre-CAE baseline
[5] = Day 8 to 15, Evening, score 0-5
[6] = Day 8 to 15, Morning, score 0-5

SLGAEQRTESIIHRALYYDLISSPDIHGT (listed as Homo sapiens) [BRM421, PEDF-derived short peptide, 29mer, residues 93-121; tested as BRM421 ophthalmic solution (OS)]
VAS dryness compared to placebo (FIG. 4F) (subjects with DED [1]; subjects with cataract): significant improvements
VAS dryness compared to placebo (FIG. 4E) (subjects with DED [1]; subjects without cataract): did not show significant improvements
Diary Dryness Change from Baseline, ANCOVA LS Mean (SE) (subjects with DED [2]; Day 1 to 7, Evening, score 0-5): −0.243 (0.0484)
Diary Dryness Change from Baseline, Mean (SD) (subjects with DED [2]; Day 1 to 7, Evening): −0.241 (0.5137)
Diary Dryness Change from Baseline, ANCOVA LS Mean Difference (SE), BRM421 OS − Placebo (subjects with DED [2]; Day 1 to 7, Evening, score 0-5): −0.145 (0.0671)
Diary Dryness Change from Baseline, Two-Sample t-test Mean Difference (SE), BRM421 OS − Placebo (subjects with DED [2]; Day 1 to 7, Evening, score 0-5): −0.140 (0.0673)
Diary Burning Change from Baseline, ANCOVA LS Mean (SE) (subjects with DED [2]; Day 1 to 7, Morning, score 0-5): −0.254 (0.0528)
Diary Ocular Discomfort Change from Baseline, ANCOVA LS Mean (SE) (subjects with DED [2]; Day 1 to 7, Morning, score 0-5): −0.138 (0.0518)
Diary Burning Change from Baseline, Mean (SD) (subjects with DED [2]; Day 1 to 7, Morning): −0.256 (0.5580)
Diary Ocular Discomfort Change from Baseline, Mean (SD) (subjects with DED [2]; Day 1 to 7, Morning): −0.149 (0.5064)
Diary Burning Change from Baseline, ANCOVA LS Mean Difference (SE), BRM421 OS − Placebo (subjects with DED [2]; Day 1 to 7, Morning, score 0-5): −0.173 (0.0731)
Diary Burning Change from Baseline, Two-Sample t-test Sample Mean Difference (SE), BRM421 OS − Placebo (subjects with DED [2]; Day 1 to 7, Morning, score 0-5): −0.172 (0.0742)
Diary Ocular Discomfort Change from Baseline, ANCOVA LS Mean Difference (SE), BRM421 OS − Placebo (subjects with DED [2]; Day 1 to 7, Morning, score 0-5): −0.146 (0.0717)
Diary Ocular Discomfort Change from Baseline, Two-Sample t-test Sample Mean Difference (SE), BRM421 OS − Placebo (subjects with DED [2]; Day 1 to 7, Morning, score 0-5): −0.152 (0.0727)
Diary ocular discomfort and burning improvement from baseline compared to placebo (subjects with DED [2]; Day 1 to Day 7, evening): not significant in the evening
Diary dryness improvement from baseline compared to placebo (FIG. 3A) (subjects with DED [2]; Day 1 to Day 7, evening, pre-CAE baseline): significantly better improvement
Diary dryness improvement from baseline compared to placebo (FIG. 3A) (subjects with DED [2]; [4]): not significantly better in the morning
Diary ocular discomfort and burning improvement from baseline compared to placebo (subjects with DED [2]; [4]): significantly better improvements
Diary Dryness Change from Baseline, ANCOVA LS Mean (SE) (subjects with DED [2]; [5]): −0.377 (0.0651)
Diary Dryness Change from Baseline, Mean (SD) (subjects with DED [2]; Day 8 to 15, Evening): −0.382 (0.6917)
Diary Dryness Change from Baseline, ANCOVA LS Mean Difference (SE), BRM421 OS − Placebo (subjects with DED [2]; [5]): −0.036 (0.0901)
Diary Dryness Change from Baseline, Two-Sample t-test Sample Mean Difference (SE), BRM421 OS − Placebo (subjects with DED [2]; [5]): −0.029 (0.0915)
Diary Burning Change from Baseline, ANCOVA LS Mean (SE) (subjects with DED [2]; [6]): −0.313 (0.0640)
Diary Ocular Discomfort Change from Baseline, ANCOVA LS Mean (SE) (subjects with DED [2]; [6]): −0.223 (0.0656)
Diary Burning Change from Baseline, Mean (SD) (subjects with DED [2]; Day 8 to 15, Morning): −0.332 (0.7199)
Diary Ocular Discomfort Change from Baseline, Mean (SD) (subjects with DED [2]; Day 8 to 15, Morning): −0.248 (0.6696)
Diary Burning Change from Baseline, ANCOVA LS Mean Difference (SE), BRM421 OS − Placebo (subjects with DED [2]; [6]): −0.048 (0.0884)
Diary Burning Change from Baseline, Two-Sample t-test Sample Mean Difference (SE), BRM421 OS − Placebo (subjects with DED [2]; [6]): −0.048 (0.0939)
Diary Ocular Discomfort Change from Baseline, ANCOVA LS Mean Difference (SE), BRM421 OS − Placebo (subjects with DED [2]; [6]): −0.049 (0.0906)
Diary Ocular Discomfort Change from Baseline, Two-Sample t-test Sample Mean Difference (SE), BRM421 OS − Placebo (subjects with DED [2]; [6]): −0.058 (0.0936)
ODS dryness versus placebo (FIG. 3B) (subjects with DED [2]; Visit 3, both pre-CAE and post-CAE evaluations as baselines): no significant difference
ODS burning and ODS stinging versus placebo (FIG. 3B) (subjects with DED [2]; Visit 3, post-CAE evaluations): significant effects
Corneal damage repair compared to placebo (FIG. 5D) (subjects with DED [3]; patients with cataract and surgery): slight improvements
Corneal damage repair compared to placebo (FIG. 5C) (subjects with DED [3]; patients with cataract but without surgery): significant improvements; also recorded: more significant
Corneal damage repair compared to placebo (FIG. 5B) (subjects with DED [3]; subjects with cataract): significant improvements
Corneal damage repair (FIG. 5A) (subjects with DED [3]; subjects without cataract): did not show significant improvements
